These results are taken from patent US20180045715A1, “STRUCTURE AND FUNCTION OF THE SALICYCLIC ACID BINDING SITES ON HUMAN HMGB1 AND METHODS OF USE THEREOF FOR THE RATIONAL DESIGN OF BOTH SALICYCLIC ACID DERIVATIVES AND OTHER AGENTS THAT ALTER ANIMAL AND PLANT HMGBS ACTIVITIES” (Boyce Thompson Institute for Plant Research, Inc., priority 2015, published 2018).

pIC50: −log10 of the molar value. Like-named read-outs stand apart in the source and are kept apart here.

One assay concerns COX. The conditions noted are these: cited from earlier work.
The target in another assay is T1, full-length HMGB1 (Homo sapiens, UniProt P09429).
T1 construct: (i) full length: residues 2-215; hexaHis (TEV-cleavable) (N, cleaved yes); made in house
T1 sequence (P09429 2-215): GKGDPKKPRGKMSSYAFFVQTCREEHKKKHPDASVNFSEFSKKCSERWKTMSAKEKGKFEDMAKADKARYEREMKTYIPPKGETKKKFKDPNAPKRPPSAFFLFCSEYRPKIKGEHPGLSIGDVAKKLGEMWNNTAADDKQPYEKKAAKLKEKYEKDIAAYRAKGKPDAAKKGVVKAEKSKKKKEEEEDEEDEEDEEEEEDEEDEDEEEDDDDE
Nature of the assay: WaterLOGSY NMR with HMGB1. The format is binding. The conditions noted are these: 6 mM SA or 5 mM ac3AESA, 20 μM protein. From the text:
NMR can be used to detect protein ligand interactions either by protein-detected experiments (Lepre, Moore et al. 2004), detecting changes in the frequencies of resonances of the protein sample due to ligand binding (protein-detected chemical shift perturbation (CSP) experiments), or by ligand-detected experiments (Lepre, Moore et al. 2004), in which NMR properties of the ligands due to ligand-protein interactions are detected. Protein-detected ligand binding experiments are usually done using isotope-enriched protein samples which can be studied by isotope-filtered NMR experiments, including for example ^15N-^1H-HSQC (Kay, Keifer et al. 1992). Ligand-detected experiments include the Waterlogsy experiment (Meyer and Peters 2003, Lepre, Moore et al. 2004, Furihata, Shimotakahara et al. 2008), which detects interactions in the ternary complex formed by the protein, the ligand, and one or more water molecules, and the Saturation Transfer Difference (STD) NMR experiments (Mayer and Meyer 2001, Lepre, Moore et al. 2004, Wang, Liu et al. 2004), which detects magnetization transfer from the protein to the ligand in the protein-ligand complex. The Waterlogsy experiment is a more sensitive experiment, typically employed to detect qualitatively if there is an interaction between protein and ligand. […]

Assay [1] deals with T2, R50A/K54A mutant AtHMGB3 (Arabidopsis thaliana, UniProt P93047, K54A/R50A).
T2 construct: providing a full length Arabidopsis thaliana HMGB1 or HMGB3 (AtHMGB1 or AtHMGB3) protein; made in house
Nature of the assay: Callose deposition with mutant R50A/K54A AtHMGB3. As to conditions: in vivo. How it is done:
Arabidopsis leaves were collected 15 h after infiltration with 100 nM AtHMGB3 or 100 nM Pep1, and then immediately immersed in alcoholic lactophenol (phenol:glycerol:lactic acid:water:ethanol=1:1:1:1:8) to destain the chlorophyll. To remove the background fluorescence, destained leaves were treated with toluidine blue O solution (0.05% toluidine blue O, 0.1 M sodium acetate, pH 4.4) for 30 min, and then rinsed twice with 150 mM K2HPO4 (pH 9.5). Callose was stained with aniline blue solution (0.02% aniline blue, 150 mM K2HPO4, pH 9.5) for 30 min in the absence of light. The aniline blue-stained leaves were mounted with 25% glycerol and analyzed using a Leica DM5500 epifluorescence microscope. The number of callose loci was quantified using an ImageJ (NIH).
(§1) Thus, these residues (R50 and K54) were mutated to Ala, and the resulting mutant AtHMGB3 tested for its ability to activate MPK3/6 and induce callose deposition in the absence or presence of SA. The R50A/K54A mutant AtHMGB3 retained its ability to activate MPK3/6 and induce callose deposition, but inhibition of these activities by SA was lost (FIG. 7H,I and FIG. 8).

In assay [2] the target is T2, R50A/K54A mutant AtHMGB3. Nature of the assay: MAPK activation assay with mutant R50A/K54A AtHMGB3. As to conditions: in vivo. How it is done:
To detect the phosphorylation of Arabidopsis MAPKs (MPK3/4/6), 3 to 4 week-old soil grown Arabidopsis leaves were infiltrated with 1 μM AtHMGB3 or 1 μM Pep1 peptide ([…]; synthesized by GenScript USA Inc.). […] Proteins were extracted using lacus buffer (25 mM Tris-HCl, pH 7.5, 15 mM MgCl2, 15 mM EGTA, 75 mM NaCl, 1 mM DTT, 0.1% NP-40, 5 mM p-nitrophenylphosphate, 60 mM β-glycerophosphate, 0.1 mM […], 1 mM NaF, 1 mM PMSF, 5 μg/ml leupeptin, 5 μg/ml aprotinin), and then centrifuged at 15,000 g for 10 min at 4 ° C. to remove cell debris.
as §1

Assay [3] concerns the target T3, HMGB1^RE (Homo sapiens, UniProt P09429).
T3 construct: (i) full length: residues 2-215; 6x His (cleaved yes); made in house; host or cells: Escherichia coli BL21
T3 sequence (P09429 2-215): T1 sequence (P09429 2-215)
Nature of the assay: Chemotaxis assay (Boyden chambers): HMGB1^RE-elicited migration of mouse 3T3 fibroblasts. The class given is cell-based. How it is done:
(§2) Cell migration was assayed using Boyden chambers (Venereau et al., 2012). The downside of PVP-free polycarbonate filters (8 μm pores; Millipore) was coated with 50 μg/ml fibronectin (Sigma). Serum-free DMEM (negative control), DMEM containing 0.1 nM fMLP (positive control; Sigma), or DMEM containing 1 nM HMGB1^RE or HMGB1^SS were placed in the lower chamber, together with different concentrations of SA (Sigma). The mouse 3T3 fibroblast cells were cultured in DMEM media supplemented with 10% CS until 90% confluence, washed twice with PBS to eliminate any floating cells, and harvested with trypsin. 50,000 cells in 200 μL were added to the upper chamber, and cells were left to migrate for 3 h at 37° C. Non-migrating cells were removed with a cotton swab, and migrated cells were fixed with ethanol and stained with Giemsa.
(§3) HMGB1^RE acts as a chemo-attractant that mediates migration of several cell types, including monocytes, fibroblasts, mesoangioblasts, smooth muscle cells, and colon cancer cells (Venereau et al., 2012). To determine whether SA alters HMGB 1's chemo-attractant activity, a chemotaxis assay was performed with mouse 3T3 fibroblasts.

In assay [4] the test system is HMGB1^RE. Described as above. As to conditions: chemo-attractant and cytokine-inducing activities vs literature COX-2 inhibition. The class given is cell-based. As to the method: as §2, §3

T2 sequence (P93047 whole entry R50A/K54A): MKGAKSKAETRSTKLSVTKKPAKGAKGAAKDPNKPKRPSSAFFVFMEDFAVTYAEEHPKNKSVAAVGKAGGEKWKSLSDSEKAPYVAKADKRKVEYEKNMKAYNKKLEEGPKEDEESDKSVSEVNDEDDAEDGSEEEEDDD

On to `O=C(O)c1ccccc1O` [SA, salicylic acid], for which, in the assay with COX (literature (Mitchell et al., 1997; Vane, 1971)), the “IC50, inhibition of COX activity in vitro” value is above 100 µg/mL. Further, the pIC50 is below 3.30 in the assay with COX (literature, conversion in parentheses, read-out: IC50, inhibition of COX activity in vitro); 5.40 to 5.52 on HMGB1^RE [3] (mouse 3T3 fibroblasts, 1 nM HMGB1^RE, read-out: IC50, inhibition of HMGB1^RE-elicited migration of fibroblasts); 5.36 to 5.49 on HMGB1^RE [3] (read-out: IC50, inhibition of HMGB1^RE-induced chemotaxis). Further, the “WaterLOGSY binding to HMGB1” value on full-length HMGB1 is “binds”. At R50A/K54A mutant AtHMGB3 [1], the “inhibition by SA of callose deposition induced by R50A/K54A AtHMGB3” value is “lost”. Further, the “inhibition by SA of MPK3/6 activation by R50A/K54A AtHMGB3” value on R50A/K54A mutant AtHMGB3 [2] is given as “lost”. Besides, in the assay with HMGB1^RE [4], the “concentration inhibiting HMGB1 bioactivities, fold below that required to inhibit COX-2's enzyme activity” value is on record as 10-50 fold.
